# In paper PMC6156427, “Characterization of NGFFYamide Signaling in Starfish Reveals Roles in Regulation of Feeding Behavior and Locomotory Systems” (Frontiers in Endocrinology, 2018):
# No end group written: not given here.
# Key:
# [1] = test system: tube foot preparations from A. rubens; settings: ACh 10^−6 M; ref [54], [57]; cited from earlier work
# Experimental: Here, NGFFYamide was tested in vitro to investigate its effect on apical muscle and tube foot preparations from A. rubens, using the same methods reported previously when testing other neuropeptides ([53], [54], [56]). Briefly, the apical muscle was dissected from the aboral body wall of starfish arms and cut into segments approximately 1 cm in length and cotton ligatures were tied at each end. […] Thus, application of NGFFYamide triggered phasic contractions of tube feet that were superimposed upon an increase in basal tone. Furthermore, there was concentration-dependency in the effect of NGFFYamide on both the amplitude and the frequency of the phasic contractions. This action of NGFFYamide on tube feet is interesting because it is the first neuropeptide that we have ...
# [2] = test system: apical muscle preparations from A. rubens; settings: ACh 10^−6 M; ref [54], [57]; cited from earlier work
# Experimental: Investigation of the physiological roles of NG peptides in echinoderms was advanced most recently with the discovery of the precursor of the NG peptide NGFFYamide (NGFFY-NH2) in the starfish A. rubens. Research on neuropeptide systems in this species led to the discovery of the first echinoderm neuropeptides to be sequenced—the SALMFamide neuropeptides S1 and S2 ([45]). […] Here, NGFFYamide was tested in vitro to investigate its effect on apical muscle and tube foot preparations from A. rubens, using the same methods reported previously when testing other neuropeptides ([53], [54], [56]). Briefly, the apical muscle was dissected from the aboral body wall of starfish arms and cut into segments approximately 1 cm in length and cotton ligatures were tied at each end. […] Thus, NGFFYamide precursor-expressing cells are present in the coelomic lining of the apical muscle, a thickening of the longitudinally orientated body wall muscle layer located in an aboral and sagittal position in each arm.
# rats = settings: ref [9]; cited from earlier work
# Source text: (§1) Thus, nothing was known about its physiological roles when NPS was first identified. […] Furthermore, evidence that the anxiolytic effect ...
# mice = settings: ref [9], cited from earlier work
# Source text: as §1
# rodents = settings: ref [76]; cited from earlier work
# Source text: as §1
# mammals = settings: ref [15], [18], [72]–[75]; cited from earlier work
# Source text: as §1
# [3] = test system: "orphan" G-protein coupled receptor GPR154; settings: ref [65]; cited from earlier work
# Source text: as §1
# [4] = test system: tube foot preparations from A. rubens; assay: in vitro pharmacology, tube foot preparations; design: species or system Asterias rubens; settings: read-out: half maximal response concentration (EC50), tonic contraction; tonic contraction of tube feet, 10^−9-10^−6 M; six measurements; 11°C; four-parameter curve
# Experimental: Here, NGFFYamide was tested in vitro to investigate its effect on apical muscle and tube foot preparations from A. rubens, using the same methods reported previously when testing other neuropeptides ([53], [54], [56]). Briefly, the apical muscle was dissected from the aboral body wall of starfish arms and cut into segments approximately 1 cm in length and cotton ligatures were tied at each end. Tube foot preparations were obtained by dissecting from starfish arms a small square-shaped piece of ambulacral body wall containing a single tube foot podium and its associated ampullae. […] A relaxant effect of NGFFYamide on apical muscle preparations was expressed as a percentage reversal of the maximal contraction induced by 10^−6 M ACh. […] For phasic contractions, peak amplitude and frequency were quantified over a 5-min recording period and expressed as mean amplitude and mean peaks/minute, respectively. For in vitro characterization of the effects of NGFFYamide on tube foot preparations, a concentration-response curve was fitted with a four-parameter curve and the EC50 value was calculated based on six measurements. The in vitro effect of NGFFYamide on basal tone was analyzed by one-way ANOVA using Bonferroni's multiple comparisons post-hoc test. […]
# [5] = test system: NPS/CCAP-type receptor in the sea urchin S. purpuratus; settings: ref [8]; cited from earlier work
# Source text: Evidence that NG peptides are orthologs of vertebrate NPS-type neuropeptides was provided by analysis of the sequence of the NG peptide precursor in the cephalochordate B. floridae, which comprises two copies of a peptide (SFRNGVG) that is identical to the N-terminal region of NPS ([…]) ([34]). However, definitive proof was provided with the discovery that an NPS/CCAP-type receptor in the sea urchin S. purpuratus is activated by the neuropeptide NGFFFamide ([8]). Thus, a bilaterian neuropeptide family comprising NPS in vertebrates, NG peptides in invertebrate deuterostomes and ...
# [6] = test system: esophagus preparations from the sea urchin E. esculentus; settings: Echinus esculentus; ref [35]; cited from earlier work
# Source text: (§2) Having analyzed both the anatomical expression pattern and bioactivity of NGFFYamide in the starfish A. rubens, it is of interest to make comparisons with what is known about the physiological roles of NG peptides in other echinoderms. The first NG peptide to be identified in an echinoderm was NGIWYamide, which was isolated from the sea cucumber A. japonicus on account of its effect in causing contraction of longitudinal body wall muscles in this species ([42]).
# [7] = test system: tube foot preparations from the sea urchin E. esculentus; settings: Echinus esculentus; ref [35]; cited from earlier work
# Source text: as §2
# tentacle preparations = settings: A. japonicus; ref [43]; cited from earlier work
# Source text: as §2
# [8] = test system: oocyte maturation and spawning; settings: A. japonicus; ref [44]; cited from earlier work
# Source text: as §2
# intestine preparations = settings: A. japonicus; ref [43]; cited from earlier work
# Source text: as §2
# [9] = test system: longitudinal body wall muscle; settings: A. japonicus; ref [43]; cited from earlier work
# Source text: as §2
# [10] = test system: body wall mutable collagenous tissue; settings: A. japonicus; ref [64]; cited from earlier work
# Source text: as §2
# moth Manduca sexta = settings: ref [28], [78], [79]; cited from earlier work
# Source text: (§3) Furthermore, there is substantial evidence that CCAP is one of several neuropeptides that regulate shedding of the exoskeleton (ecdysis) in arthropods. Thus, a dramatic increase in circulating levels of CCAP has been observed in two crustacean species during ecdysis ([26]).
# crustaceans = settings: ref [25]; cited from earlier work
# Source text: as §3
# oviduct = settings: Locusta migratoria; ref [82]; cited from earlier work
# Source text: as §3
# gut = settings: cockroaches; ref [32], [83]; cited from earlier work
# Source text: as §3
# cockroach P. americana = settings: ref [33]; cited from earlier work
# Source text: as §3
compound,measurement,setting,value
CC(=O)OCC[N+](C)(C)C [acetylcholine],contractant of starfish tube feet,[1],known contractant
same,contractant of starfish apical muscle,[2],known contractant
"SFRNGVGTGMKKTSFQRAKS [NPS, 20-residue neuropeptide first discovered in rodents]",wakefulness,rats,increases wakefulness
same,anxiolytic-like effects,mice; mice exposed to stressful conditions,anxiolytic-like effects
same,locomotor activity,mice,increases locomotor activity
same,"food intake (increase, one study)",rodents,increase food intake
same,food intake (inhibition),mammals,inhibition of food intake
same,ligand of GPR154,[3],endogenous ligand
NGFFY-NH2 [NGFFYamide],EC50,[4],14 nM
NGFFF-NH2 [NGFFFamide],activation of NPS/CCAP-type receptor,[5],activated
same,contraction of esophagus preparations,[6],contraction
same,contraction of tube foot preparations,[7],contraction
NGIWYamide,contraction of tentacle preparations,tentacle preparations,tonic contraction
same,oocyte maturation and spawning,[8],induction of oocyte maturation and spawning
same,spontaneous phasic contractions of intestine preparations,intestine preparations,inhibition
same,contraction of longitudinal body wall muscle,[9],tonic contraction
same,effect on body wall mutable collagenous tissue,[10],stiffening
"PFCNAFTGC-NH2 [CCAP, 9-residue neuropeptide first discovered in the crustacean Carcinus maenas]",ecdysis motor program,moth Manduca sexta,activates an ecdysis motor program
same,cardioexcitatory effect,crustaceans,cardioexcitatory
same,oviduct contractions,oviduct,induction of oviduct contractions
same,gut contraction and secretion of digestive enzymes,gut,stimulation of gut contraction and secretion of digestive enzymes
same,locomotor activity,cockroach P. americana,inhibition of locomotor activity
